This is an account of results in article PMC10529594, “Strasseriolides display in vitro and in vivo activity against trypanosomal parasites and cause morphological and size defects in Trypanosoma cruzi” (PLOS Neglected Tropical Diseases, 2023).

Each structure is given as a SMILES string. Counter-ions that a name gives are not always drawn. Like-named read-outs stand apart in the source and are kept apart here.

For one experiment, the system named is T. cruzi trypomastigotes. Nature of the experiment: T. cruzi trypomastigote viability / rate of action assay (CellTiter-Glo bioluminescence). Particulars: for EC50: Trypanosoma cruzi, read-out: EC50; for EC50 / EC90/EC50 / Hill slope: Trypomastigotes. The class given is cell-based, Trypanosoma cruzi. The procedure: Tulahuen T. cruzi trypomastigotes were recovered 6 days post infection from the supernatant of harvested infected L6 cells cultures after 3 hours at 37°C. 90 μL of parasite culture at a density of 5 × 10^6 cells in RPMI 1640 media were dispensed into 96 Nunc flat bottom assay plates containing 10 μL of each compound.
Parasite viability was assessed upon 24, 48 and 72 hour incubation at 37°C in 5% CO2 by adding 50 μL of CellTiter-Glo viability reagent to white 96-well microplates. After signal stabilization, bioluminescence was read. Compound concentrations ranged from 0.1 μM to 50 μM and final maximal DMSO percentage in the well was 0.05%. Results were normalized to […] control columns in each plate.

Experiment [1] concerns intracellular T. cruzi amastigotes. Nature of the experiment: Rate of kill, intracellular T. cruzi amastigotes (CPRG, 96-well). Type of experiment: cell-based, Trypanosoma cruzi. Particulars: Amastigotes; for EC50: Trypanosoma cruzi. The procedure: For rate of kill experiments, in vitro activity against intracellular T. cruzi amastigotes was analyzed at early time points: 24, 48 and 72 hours. The standard colorimetric transgenic assay was established in a 96-well format, with serial dilutions of compounds and 0.05% as the final maximal DMSO percentage per well. In these experiments L6 host cells were included as negative controls and CPRG conversion was monitored at 585 nm using a Versamax microplate reader (Molecular devices).

For experiment [2], the system named is T. b. brucei 427 bloodstream forms. Nature of the experiment: Resazurin-based T. b. brucei assay. The conditions noted are these: Trypanosoma brucei; T. b. brucei 427 bloodstream forms, 72 h; read-out: EC50 T. brucei. The class given is cell-based. The protocol:
Parasites strains adapted to culture in vitro were used. T. b. brucei Lister 427 bloodstream form parasites (information about the identity and genealogy of this strain is available at The Rockefeller University website) were grown in HMI-9 medium supplemented with 10% heat-inactivated fetal bovine serum (iFBS).
Cells in logarithmic phase of growth were added using a Multidrop dispenser (45 μL, 500 bloodstream T. b. brucei parasites per well) to 384-well Corning assay plates already containing 5 μL of each compound and controls, and incubated for 72 hours at 37°C. 10 μL of resazurin were added per well, and the plates were further incubated for 6 hours at 37°C. The final fluorescence was determined at 550–590 nm. Pentamidine at 40 nM and 0.0067% DMSO were used as […] growth controls, respectively.
(Alamar Blue is a resazurin reagent that responds to reducing activity.)

Experiment [3] relates to L. donovani MHOM/ET/67/HU3 transgenic intracellular amastigotes. Nature of the experiment: L. donovani intracellular amastigote assay (luciferase, THP-1 macrophages). Type of experiment: cell-based. The conditions noted are these: Leishmania donovani, THP-1, 72 h, read-out: EC50 L. donovani. The protocol:
Leishmania donovani MHOM/ET/67/HU3 cells with the luciferase gene integrated into the parasite genome was obtained as described. Parasites were grown at 28°C in RPMI 1640-modified medium supplemented with 20% heat-inactivated fetal bovine serum (iFBS, Invitrogen) with […] of hygromycin B.
THP-1 cells were differentiated into macrophages with 20 ng/mL of PMA in a 96-well plate at 3 × 10^4 cells per well for 48 hours followed by 24 hours of culture in fresh medium. Cells were then infected with transgenic stationary L. donovani MHOM/ET/67/HU3 promastigotes expressing the luciferase gene at a multiplicity of infection (MOI) of 10. A volume of 100 μL of culture media containing the test compounds was added to each well and the plates were incubated at 37°C for 72 hours. Luminescence was measured using the Promega kit luciferase assay system.

On to `CC[C@@H]([C@H](C)O)n1ncn(-c2ccc(N3CCN(c4ccc(OC[C@@H]5CO[C@@](Cn6cncn6)(c6ccc(F)cc6F)C5)cc4)CC3)cc2)c1=O` [Posaconazole, posaconazole], for which the “effect against extracellular forms (trypomastigotes)” value with T. cruzi trypomastigotes (2 μM, 24 and 48 hours) is recorded as “no effect”. For the same compound, in experiment [1] (24 h), the EC90/EC50 amounted to 5.16; the Hill slope came to 1.33; the midpoint of the response, the EC50, lay at 5410 nM. Further, in experiment [1] (48 h), the EC90/EC50 was 6.41, the Hill slope was 1.20 and the EC50 was 0.8 nM. In experiment [1] (72 h), this compound showed an EC90/EC50 of 1.83, a Hill slope of 3.65 and an EC50 of 0.7 nM.

Consider `N=C(N)c1ccc(OCCCCCOc2ccc(C(=N)N)cc2)cc1` [Pentamidine, pentamidine isethionate salt, reference compound], for which the EC50 in experiment [2] is 2 nM.

On to `C[C@@H]1[C@H](O)[C@@H](C)/C=C/C=C/C=C/C=C/C=C/C=C/C=C/[C@H](O[C@@H]2O[C@H](C)[C@@H](O)[C@H](N)[C@@H]2O)C[C@@H]2O[C@](O)(C[C@@H](O)C[C@@H](O)[C@H](O)CC[C@@H](O)C[C@@H](O)CC(=O)O[C@H]1C)C[C@H](O)[C@H]2C(=O)O` [Amphotericin B, amphotericin B, reference compound], for which the EC50 in experiment [3] turned out to be 53 nM.

As to `CC1CS(=O)(=O)CCN1/N=C/c1ccc([N+](=O)[O-])o1` (stereo not shown) [Nifurtimox, nifurtimox], the “RLU Average, trypomastigote viability” value came out at 169266 RLU in the experiment on T. cruzi trypomastigotes (24 h, 0.0195312 µM, untreated 165759); 166443 RLU in the experiment on T. cruzi trypomastigotes (24 h, 0.0390625 µM, untreated 165759); 165831 RLU with T. cruzi trypomastigotes (24 h, 0.078125 µM, untreated 165759); 160072 RLU with T. cruzi trypomastigotes (24 h, 0.15625 µM, untreated 165759); 149962 RLU in the experiment with T. cruzi trypomastigotes (24 h, 0.3125 µM, untreated 165759); 139314 RLU in the experiment on T. cruzi trypomastigotes (24 h, 0.625 µM, untreated 165759). Moreover, the “RLU Average, trypomastigote viability” value was 111524 RLU in the experiment on T. cruzi trypomastigotes (24 h, 1.25 µM, untreated 165759); 65827 RLU with T. cruzi trypomastigotes (24 h, 2.5 µM, untreated 165759); 11749 RLU in the experiment with T. cruzi trypomastigotes (24 h, 5 µM, untreated 165759); 1446 RLU with T. cruzi trypomastigotes (24 h, 10 µM, untreated 165759); 139199 RLU in the experiment with T. cruzi trypomastigotes (48 h, 0.0195312 µM, untreated 134778); 135603 RLU with T. cruzi trypomastigotes (48 h, 0.0390625 µM, untreated 134778). Further, the “RLU Average, trypomastigote viability” value in the experiment on T. cruzi trypomastigotes (48 h, 0.078125 µM, untreated 134778) is on record as 135814 RLU; in the experiment on T. cruzi trypomastigotes (48 h, 0.15625 µM, untreated 134778), 121189 RLU; in the experiment with T. cruzi trypomastigotes (48 h, 0.3125 µM, untreated 134778), 101689 RLU; in the experiment with T. cruzi trypomastigotes (48 h, 0.625 µM, untreated 134778), 74973 RLU; with T. cruzi trypomastigotes (48 h, 1.25 µM, untreated 134778), 27237 RLU; in the experiment on T. cruzi trypomastigotes (48 h, 2.5 µM, untreated 134778) it was 4248 RLU. In addition, the “RLU Average, trypomastigote viability” value in the experiment on T. cruzi trypomastigotes (48 h, 5 µM, untreated 134778) turned out to be 1304 RLU; in the experiment with T. cruzi trypomastigotes (48 h, 10 µM, untreated 134778), 430 RLU; with T. cruzi trypomastigotes (72 h, 0.0195312 µM, untreated 74303) it was 78773 RLU; in the experiment with T. cruzi trypomastigotes (72 h, 0.0390625 µM, untreated 74303), 76780 RLU; in the experiment on T. cruzi trypomastigotes (72 h, 0.078125 µM, untreated 74303), 75817 RLU; with T. cruzi trypomastigotes (72 h, 0.15625 µM, untreated 74303), 65552 RLU. In addition, the “RLU Average, trypomastigote viability” value with T. cruzi trypomastigotes (72 h, 0.3125 µM, untreated 74303) is given as 53878 RLU; with T. cruzi trypomastigotes (72 h, 0.625 µM, untreated 74303), 44434 RLU; in the experiment on T. cruzi trypomastigotes (72 h, 1.25 µM, untreated 74303), 6874 RLU; with T. cruzi trypomastigotes (72 h, 2.5 µM, untreated 74303), 861 RLU; in the experiment with T. cruzi trypomastigotes (72 h, 5 µM, untreated 74303), 764 RLU; in the experiment on T. cruzi trypomastigotes (72 h, 10 µM, untreated 74303), 553 RLU. For the same compound, the EC50 in the experiment with T. cruzi trypomastigotes (24 h) turned out to be 2080 nM; with T. cruzi trypomastigotes (48 h) it was 640 nM; in the experiment on T. cruzi trypomastigotes (72 h) it was 600 nM; in experiment [1] (24 h) it was 300 nM; in experiment [1] (48 h), 150 nM; in experiment [1] (72 h), 130 nM. Moreover, the EC90/EC50 with T. cruzi trypomastigotes (24 h) is 4.04; with T. cruzi trypomastigotes (48 h) it was 3.61; in the experiment with T. cruzi trypomastigotes (48 h, listed as nifurtimox) it was 3.6; with T. cruzi trypomastigotes (72 h), 3.33; with T. cruzi trypomastigotes (72 h, listed as nifurtimox), 3.3; in experiment [1] (24 h) it was 4.07. The EC90/EC50 was determined as 4.16 in experiment [1] (48 h) and 3.03 in experiment [1] (72 h). In addition, the Hill slope with T. cruzi trypomastigotes (24 h) was 1.58; with T. cruzi trypomastigotes (48 h), 1.71; in the experiment with T. cruzi trypomastigotes (48 h, listed as nifurtimox), “below 2.1”; with T. cruzi trypomastigotes (72 h), 1.83; in the experiment on T. cruzi trypomastigotes (72 h, listed as nifurtimox), “below 2.1”; in experiment [1] (24 h) it was 1.60. Also, the values for the Hill slope in experiment [1] (48 h) and in experiment [1] (72 h) were 1.55 and 1.98, respectively.

In general, Hill slope refers to a measure of the steepness of the concentration-response curve. What is called EC50 is the midpoint of the concentration-response curve.
